Measurements taken from ChEMBL document CHEMBL1201862, “PubChem BioAssay data set” (2004).
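Where inhibition never reached the appropriate level, the endpoint shown equals the highest concentration tested. Otherwise, values were interpolated linearly from a five-concentration, 48-hour dose response in 96-well plates. At the GI50, growth is halved.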 Active and inactive are the calls of the source. No stated cut-off is given here; in the data, active = GI50 up to about 1.1 µM and inactive = higher.

What was measured:
Test in all cases: NCI anticancer screen, dose series, 48 h
MCF7 = test system: MCF7
SK-MEL-28 = test system: SK-MEL-28
OVCAR-8 = test system: OVCAR-8
HT-29 = test system: HT-29
DU-145 = test system: DU-145
M14 = test system: M14
786-0 = test system: 786-0
SN12C = test system: SN12C
ACHN = test system: ACHN
NCI/ADR-RES = test system: NCI/ADR-RES
BT-549 = test system: BT-549
U-251 = test system: U-251
NCI-H460 = test system: NCI-H460
NCI-H23 = test system: NCI-H23
MOLT-4 = test system: MOLT-4
HOP-92 = test system: HOP-92

With `c1ccc2c(c1)ncn2CCn1ccnc1` the GI50 (MCF7) was > 100 µM (inactive), the GI50 (SK-MEL-28) was > 100 µM (inactive) and the GI50 (OVCAR-8) was > 100 µM (inactive). The GI50 (HT-29) was > 100 µM (inactive), the GI50 (DU-145) was > 100 µM (inactive) and the GI50 (M14) was > 100 µM (inactive). For the same compound, the GI50 (786-0) was > 100 µM (inactive), the GI50 (SN12C) was > 100 µM (inactive) and the GI50 (ACHN) was > 100 µM (inactive). For the same compound, the GI50 (NCI/ADR-RES) was > 100 µM (inactive), the GI50 (BT-549) was > 100 µM (inactive) and the GI50 (U-251) was > 100 µM (inactive). The GI50 (NCI-H460) was > 100 µM (inactive), the GI50 (NCI-H23) was > 100 µM (inactive) and the GI50 (MOLT-4) was > 100 µM (inactive).

With `C=C1[C@@](C)([C@@H]2CCCS2)[C@H]2C(C)=C[C@]1(C)n1c(=O)n(-c3ccccc3)c(=O)n12` the GI50 (MCF7) was > 100 µM (inactive), the GI50 (SK-MEL-28) was > 100 µM (inactive) and the GI50 (HT-29) was > 100 µM (inactive). The GI50 (DU-145) was > 100 µM (inactive), the GI50 (M14) was > 100 µM (inactive) and the GI50 (786-0) was > 100 µM (inactive). For the same compound, the GI50 (SN12C) was > 100 µM (inactive), the GI50 (ACHN) was > 100 µM (inactive) and the GI50 (NCI/ADR-RES) was > 100 µM (inactive). For the same compound, the GI50 (BT-549) was > 100 µM (inactive), the GI50 (U-251) was > 100 µM (inactive) and the GI50 (NCI-H460) was > 100 µM (inactive). For the same compound, the GI50 (NCI-H23) was > 100 µM (inactive) and the GI50 (MOLT-4) was > 100 µM (inactive).

In the case of `COC(=O)c1cc(OS(=O)(=O)C(F)(F)F)c(=O)n2c1CCCC2`, the GI50 (MCF7) is reported as > 100 µM (inactive), the GI50 (SK-MEL-28) is reported as > 100 µM (inactive) and the GI50 (OVCAR-8) is reported as > 100 µM (inactive). For the same compound, the GI50 (HT-29) was > 100 µM (inactive), the GI50 (DU-145) was > 100 µM (inactive) and the GI50 (M14) was > 100 µM (inactive). For the same compound, the GI50 (786-0) was > 100 µM (inactive), the GI50 (SN12C) was > 100 µM (inactive) and the GI50 (ACHN) was > 100 µM (inactive). For the same compound, the GI50 (NCI/ADR-RES) was > 100 µM (inactive), the GI50 (BT-549) was > 100 µM (inactive) and the GI50 (U-251) was > 100 µM (inactive). The GI50 (NCI-H23) was > 100 µM (inactive) and the GI50 (MOLT-4) was > 100 µM (inactive).

In the case of `COc1cc([C@@]23OC[C@@H]4[C@@H](OC[C@@H]42)c2cc4c(cc23)OCO4)cc(OC)c1OC`, the GI50 (MCF7) is reported as < 0.01 µM (active), the GI50 (SK-MEL-28) is reported as 23.5 µM (inactive) and the GI50 (OVCAR-8) is reported as < 0.01 µM (active). The GI50 (HT-29) was < 0.01 µM (active), the GI50 (DU-145) was < 0.01 µM (active) and the GI50 (M14) was < 0.01 µM (active). For the same compound, the GI50 (786-0) was < 0.01 µM (active), the GI50 (ACHN) was < 0.0127 µM (active) and the GI50 (NCI/ADR-RES) was < 0.01 µM (active). The GI50 (BT-549) was < 0.0304 µM (active), the GI50 (U-251) was < 0.01 µM (active) and the GI50 (NCI-H460) was < 0.01 µM (active). The GI50 (NCI-H23) was < 0.01 µM (active) and the GI50 (MOLT-4) was < 0.01 µM (active).

`OC1CN2CCS[C@H]2C(O)C1O` (stereo partly drawn) was tested, and the GI50 (SK-MEL-28) was > 100 µM (inactive), the GI50 (OVCAR-8) was > 100 µM (inactive) and the GI50 (HOP-92) was > 100 µM (inactive). The GI50 (HT-29) was > 100 µM (inactive), the GI50 (DU-145) was > 100 µM (inactive) and the GI50 (M14) was > 100 µM (inactive). The GI50 (786-0) was > 100 µM (inactive), the GI50 (ACHN) was > 100 µM (inactive) and the GI50 (NCI/ADR-RES) was > 100 µM (inactive). The GI50 (BT-549) was > 100 µM (inactive), the GI50 (U-251) was > 100 µM (inactive) and the GI50 (NCI-H460) was > 100 µM (inactive). For the same compound, the GI50 (NCI-H23) was > 100 µM (inactive) and the GI50 (MOLT-4) was > 100 µM (inactive).

For `Cc1cc(O)c(C(C)C)cc1C(=S)Nc1ccc(Cl)cc1`, the GI50 (MCF7) was 8.11 µM (inactive), the GI50 (SK-MEL-28) was 13.9 µM (inactive) and the GI50 (OVCAR-8) was 10.6 µM (inactive). For the same compound, the GI50 (HT-29) was 14.8 µM (inactive), the GI50 (DU-145) was 17.7 µM (inactive) and the GI50 (786-0) was 14.1 µM (inactive). The GI50 (ACHN) was 13 µM (inactive), the GI50 (NCI/ADR-RES) was 12.9 µM (inactive) and the GI50 (BT-549) was 16.5 µM (inactive). The GI50 (U-251) was 14.7 µM (inactive), the GI50 (NCI-H460) was 11.1 µM (inactive) and the GI50 (NCI-H23) was 5.93 µM (inactive). The GI50 (MOLT-4) was 3.4 µM (inactive).

`O=C1Oc2ccccc2N/C1=C/C(=O)c1ccc([N+](=O)[O-])cc1` was tested, and the GI50 (MCF7) was > 100 µM (inactive), the GI50 (OVCAR-8) was > 100 µM (inactive) and the GI50 (HT-29) was > 100 µM (inactive). For the same compound, the GI50 (DU-145) was > 100 µM (inactive), the GI50 (M14) was > 100 µM (inactive) and the GI50 (786-0) was > 100 µM (inactive). For the same compound, the GI50 (SN12C) was > 100 µM (inactive), the GI50 (ACHN) was > 100 µM (inactive) and the GI50 (NCI/ADR-RES) was > 100 µM (inactive). For the same compound, the GI50 (BT-549) was 98.2 µM (inactive), the GI50 (U-251) was > 100 µM (inactive) and the GI50 (NCI-H460) was > 100 µM (inactive). For the same compound, the GI50 (NCI-H23) was > 100 µM (inactive) and the GI50 (MOLT-4) was > 100 µM (inactive).
